According to patent US20050209195A1, “Indolinone derivatives” (Cell Therapeutics Europe S.r.I, priority 2004, published 2005):
Read-outs that look alike come from different tables or passages of the source.

Legend:
[1] = target: T1, Human cKit Tyrosine Kinase Receptor (human cKit RTK-catalytic domain) (Homo sapiens, UniProt P10721); assay: DELFIA cKit Tyrosine Kinase Assay (cell-free); assay type: biochemical
T1 construct: human cKit RTK-catalytic domain; purchased Panvera-Invitrogen P3080
Experimental: The compounds of the invention were tested with a dedicated cell-free kinase assay for the evaluation of the inhibiting activity on tyrosine kinases.
In more detail, the assay was a DELFIA™ (Dissociation Enhanced Time-Resolved Fluorometric Assay) Tyrosine Kinase Assay™ (PerkinElmer), a highly sensitive, reproducible ELISA assay that allows to evaluate the activity of a tyrosine kinase.
Human cKit Tyrosine Kinase Receptor (human cKit RTK-catalytic domain), commercially available from Panvera-Invitrogen (Cat. N^o. P3080), was used as the tyrosine kinase.
After 1 hour incubation at room temperature and three washings with 1×DELFIA Wash Buffer (PerkinElmer), the phosphotyrosine residues of the acceptor were detected with an europium-labelled anti-phosphotyrosine monoclonal antibody (DELFIA Eu-N1 labelled anti-phosphotyrosine antibody PT66, PerkinElmer) and, after a further hour incubation at room temperature and three washings with 1×DELFIA Wash Buffer, overall phosphorylation of biotinylated polyGAT was determined by addition of Enhancement Solution (PerkinElmer) and fluorimetric analysis of the plates (α-Fusion FP HT, PerkinElmer) in the “Time-Resolved Fluorescence” mode.

[2] = target: T2, human Ret TKR-catalytic domain (Homo sapiens, UniProt P07949); assay: DELFIA Ret Kinase Assay (cell-free); assay type: biochemical
T2 construct: human Ret TKR-catalytic domain; purchased ProQinase
T2 sequence (P07949 724-1016 limits assumed): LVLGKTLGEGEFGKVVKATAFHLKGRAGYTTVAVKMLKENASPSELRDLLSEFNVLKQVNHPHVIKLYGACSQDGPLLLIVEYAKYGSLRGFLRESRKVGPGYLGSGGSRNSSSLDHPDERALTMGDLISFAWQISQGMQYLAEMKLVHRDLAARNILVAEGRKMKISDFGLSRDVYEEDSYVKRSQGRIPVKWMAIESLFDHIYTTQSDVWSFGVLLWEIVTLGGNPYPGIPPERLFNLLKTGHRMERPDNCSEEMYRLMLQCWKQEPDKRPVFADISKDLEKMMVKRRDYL
Experimental: In order to evidence and quantify inhibitory activity on Ret tyrosine kinase, the most representative compounds of the invention were tested with a dedicated DELFIA kinase assay, using a human tyrosine-kinase receptor (Ret TKR) recombinant form (human Ret TKR-catalytic domain) available from ProQinase as the tyrosine kinase.
After 10 min. incubation at 30° C., the kinase reactions were worked up as in the DELFIA cKit Kinase Assay.

[3] = test system: NIH3T3^MEN2A(C634R) cells; assay: Survival curves by Coulter Counter cell count, 72 h; assay type: cell-based, murine; conditions: Mus musculus, NIH3T3MEN2A, 72 h treatment, read-out: Cont at 72 h IC50
Experimental: (§1) NIH3T3 Murine fibroblasts and the transfected line NIH3T3^MEN2A(C634R) were treated with increasing concentrations of the compounds of the invention for 72 h. Survival curves were obtained by Coulter Counter cell count. IC50s calculated from said curves are reported in Table 9: the higher sensitivity of the oncoprotein-expressing cell line is evident. The reversal of the morphologically transformed phenotype of NIH3T3^MEN2A (C634R) cells in the presence of the compounds of the invention was evaluated by contrast phase microscopy after 24 h treatment and photographically documented.

[4] = test system: NIH3T3^MEN2A(C634R) cells; assay: Reversal of morphologically transformed phenotype, contrast phase microscopy, 24 h; assay type: cell-based, murine; conditions: 24 h treatment; for minimal effective concentration: Mus musculus, NIH3T3MEN2A, read-out: Morphology a 24 h: concentration from which reversal was observed
Experimental: as §1

[5] = cell-free DELFIA, 25 ng cKit TKR, 150 μM ATP, 20 minutes at 30° C., read-out: IC50
[6] = cell-free DELFIA, 50 ng Ret TKR, 3 μM ATP, 10 min. at 30° C., read-out: IC50

T1 sequence (P10721 589-937 limits assumed): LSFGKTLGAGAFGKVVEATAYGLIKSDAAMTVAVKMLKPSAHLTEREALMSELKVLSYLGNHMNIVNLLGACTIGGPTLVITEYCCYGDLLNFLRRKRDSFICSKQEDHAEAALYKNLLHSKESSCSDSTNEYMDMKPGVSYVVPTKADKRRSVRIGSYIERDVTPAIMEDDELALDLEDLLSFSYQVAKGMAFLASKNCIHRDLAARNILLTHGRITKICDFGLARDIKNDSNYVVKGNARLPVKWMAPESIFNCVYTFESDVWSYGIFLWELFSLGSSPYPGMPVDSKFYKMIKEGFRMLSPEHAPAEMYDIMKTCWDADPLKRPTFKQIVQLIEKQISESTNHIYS

With `COc1cc2c(cc1OC)/C(=C\c1ccc(OC(=O)NC(C)(C)C)cc1)C(=O)N2` the melting point was 238 to 240 °C.

For `COc1ccc(NC(=O)Oc2ccc(/C=C3/C(=O)Nc4cc(OC)c(OC)cc43)cc2)cc1`, the melting point was 189 to 191 °C.

Work on `COc1cc2c(cc1OC)/C(=C\c1ccc(OC(=O)N(CCO)CCO)cc1)C(=O)N2` yielded a melting point of 183 to 185 °C.

Compound `CCCCCNC(=O)Oc1ccc(/C=C2/C(=O)Nc3cc(OC)c(OC)cc32)cc1` [A.3, n-Pentyl Carbamic Acid, (E)-4-(5,6-dimethoxy-2-oxo-1,2-dihydro-indol-3-ylidenemethyl)phenyl Ester] has an IC50 [1, 5] of 380 ± 160 nM, an IC50 [2, 6] of 1.78 µM and an IC50 [3] of 2200 ± 700 nM. The “Morphology a 24 h” value [4] was “REVERSAL”, the minimal effective concentration [4] was no less than 5 µM and the melting point was 173 to 175 °C.

For `CCCCCCNC(=O)Oc1ccc(/C=C2/C(=O)Nc3cc(OC)c(OC)cc32)cc1` [A.4, n-Hexyl Carbamic Acid, (E)-4-(5,6-dimethoxy-2-oxo-1,2-dihydro-indol-3-ylidenemethyl)phenyl Ester], the IC50 [1, 5] was 135 nM, the IC50 [2, 6] was 5.73 µM and the melting point was 168 to 170 °C.

Work on `COc1cc2c(cc1OC)/C(=C\c1ccc(OC(=O)N3CCOCC3)cc1)C(=O)N2` [B.2, Morpholine-4-carboxylic Acid, (E)-4-(5,6-dimethoxy-2-oxo-1,2-dihydro-indol-3-ylidenemethyl)phenyl Ester] yielded a melting point of 255 to 257 °C.

For `COc1cc2c(cc1OC)/C(=C\c1ccc(OC(=O)N3CCN(CCO)CC3)cc1)C(=O)N2` [B.3, 4-(2-Hydroxyethyl)piperazine-1-carboxylic Acid, (E)-4-(5,6-dimethoxy-2-oxo-1,2-dihydro-indol-3-ylidenemethyl)phenyl Ester], the IC50 [1, 5] was 6740 nM, the IC50 [2, 6] was 1.77 µM and the IC50 [3] was 3100 ± 1300 nM. For the same compound, the “Morphology a 24 h” value [4] was “REVERSAL” and the melting point was 217 to 220 °C.

For `COc1cc2c(cc1OC)/C(=C\c1ccc(OC(=O)N3CCN(CCOCCO)CC3)cc1)C(=O)N2` [B.6, 4-[2-(2-Hydroxyethoxy)ethyl]piperazine-1-carboxylic Acid (E)-4-(5,6-dimethoxy-2-oxo-1,2-dihydro-indol-3-ylidenemethyl)phenyl Ester], the IC50 [1, 5] was 7470 nM, the IC50 [2, 6] was 6.65 µM and the IC50 [3] was 5600 ± 1800 nM. The “Morphology a 24 h” value [4] was “REVERSAL” and the minimal effective concentration [4] was no less than 10 µM.

With `COc1cc2c(cc1OC)/C(=C\c1ccc(OC(=O)N3CCN(c4ccccc4)CC3)cc1)C(=O)N2` [B.7, 4-Phenylpiperazine-1-carboxylic Acid, (E)-4-(5,6-dimethoxy-2-oxo-1,2-dihydro-indol-3-ylidenemethyl)phenyl Ester] the IC50 [1, 5] was 2780 nM, the IC50 [2, 6] was 3.23 µM and the melting point was greater than 260 °C.

With `COc1cc2c(cc1OC)/C(=C\c1ccc(OCCO)cc1)C(=O)N2` [D.1, (E) 3-[4-(2-hydroxyetoxy)benzylidene]-5,6-dimethoxy-1,3-dihydro-indol-2-one] the IC50 [1, 5] was 3630 nM, the IC50 [2, 6] was 1.12 µM and the IC50 [3] was 4300 ± 600 nM. For the same compound, the “Morphology a 24 h” value [4] was “REVERSAL” and the minimal effective concentration [4] was no less than 10 µM.

With `COc1cc2c(cc1OC)/C(=C\c1ccc(OC(C)=O)cc1)C(=O)N2` [E.2, Acetic Acid, (E)-4-(5,6-dimethoxy-2-oxo-1,2-dihydro-indol-3-ylidenemethyl)phenyl Ester] the IC50 [3] was 1500 ± 50 nM, the “Morphology a 24 h” value [4] was “REVERSAL” and the minimal effective concentration [4] was no less than 5 µM. It also gave a melting point of 189 to 191 °C.

`COc1cc2c(cc1OC)/C(=C\c1ccc(OC(=O)c3cccnc3)cc1)C(=O)N2` [E.3, Nicotinic Acid, (E)-4-(5,6-dimethoxy-2-oxo-1,2-dihydro-indol-3-ylidenemethyl)phenyl Ester] gave a melting point of 227 to 229 °C.

With `COc1cc2c(cc1OC)/C(=C\c1ccc(OC(=O)Nc3ccccc3)cc1)C(=O)N2` [Example A.1, Phenylcarbamic Acid, (E)-4-(5,6-dimethoxy-2-oxo-1,2-dihydro-indol-3-ylidenemethyl)phenyl Ester] the IC50 [1, 5] was 1660 nM, the IC50 [2, 6] was 8.39 µM and the melting point was 201 to 203 °C.

With `CCOP(=O)(OCC)Oc1ccc(/C=C2/C(=O)Nc3cc(OC)c(OC)cc32)cc1` [Example C.2, (E)-4-(5,6-dimethoxy-2-oxo-1,2-dihydro-indol-3-ylidenemethyl)phenyl Diethyl Phosphate] the IC50 [1] was 5090 nM, the IC50 [2] was 63.5 µM and the IC50 [3] was 1700 ± 100 nM. The “Morphology a 24 h” value [4] was “REVERSAL” and the minimal effective concentration [4] was no less than 5 µM.

Compound `COc1cc2c(cc1OC)/C(=C\c1ccc(OC(=O)c3ccccc3)cc1)C(=O)N2` [Example E.1, Benzoic Acid, (E)-4-(5,6-dimethoxy-2-oxo-1,2-dihydro-indol-3-ylidenemethyl)phenyl Ester] has a melting point of 228 to 230 °C.

Work on `CCCCCCCCCC(=O)Oc1ccc(/C=C2/C(=O)Nc3cc(OC)c(OC)cc32)cc1` [Example F.1, n-decanoic Acid, (E)-4-(5,6-dimethoxy-2-oxo-1,2-dihydro-indol-3-ylidenemethyl)phenyl Ester] yielded a melting point of 138 to 140 °C.

`COc1cc2c(cc1OC)/C(=C\c1ccc(OC(=O)CCCCNC(=O)OC(C)(C)C)cc1)C(=O)N2` [Example F.2, 5-tert-Butoxycarbonylamino-pentanoic Acid, (E)-4-(5,6-dimethoxy-2-oxo-1,2-dihydro-indol-3-ylidenemethyl)phenyl Ester] showed an IC50 [1, 5] of 1200 nM, an IC50 [2, 6] of 1.37 µM and a melting point of 101 to 103 °C.

In the case of `COc1cc2c(cc1OC)/C(=C\c1ccc(OC(=O)c3cccn3C)cc1)C(=O)N2` [Example F.4, 1-Methyl-1H-pyrrole-2-carboxylic Acid, (E)-4-(5,6-dimethoxy-2-oxo-1,2-dihydro-indol-3-ylidenemethyl)phenyl Ester], the melting point is reported as 165 to 167 °C.

`CCCCCCCCCC(=O)Oc1ccc(/C=C2\C(=O)Nc3cc(OC)c(OC)cc32)cc1` [Example G.1, n-decanoic Acid, (Z)-4-(5,6-dimethoxy-2-oxo-1,2-dihydro-indol-3-ylidenemethyl)phenyl Ester] gave a melting point of 95 to 97 °C.

For `COc1ccc(OC(=O)Oc2ccc(/C=C3\C(=O)Nc4cc(OC)c(OC)cc43)cc2)cc1` [Example H.2, (Z)-4-(5,6-dimethoxy-2-oxo-1,2-dihydro-indol-3-ylidenemethyl)phenyl, 4-methoxyphenyl Carbonate], the IC50 [1, 5] was 280 nM and the IC50 [2, 6] was 4.84 µM.

`COCCOCCOCC(=O)Oc1ccc(/C=C2/C(=O)Nc3cc(OC)c(OC)cc32)cc1` [F.3, [2-(2-Methoxy-ethoxy)-ethoxy]acetic Acid, (E)-4-(5,6-dimethoxy-2-oxo-1,2-dihydro-indol-3-ylidenemethyl)phenyl Ester] gave an IC50 [1, 5] of 5080 nM, an IC50 [2, 6] of 3.79 µM and a melting point of 117 to 119 °C.

For `COc1cc2c(cc1OC)/C(=C\c1ccc(OC(=O)c3cnccn3)cc1)C(=O)N2` [F.5, Pyrazine-2-carboxylic Acid, (E)-4-(5,6-dimethoxy-2-oxo-1,2-dihydro-indol-3-ylidenemethyl)phenyl Ester], the melting point was greater than 250 °C.

`COc1cc2c(cc1OC)/C(=C/c1ccc(OC(=O)CCCCNC(=O)OC(C)(C)C)cc1)C(=O)N2` [G.2, 5-tert-Butoxycarbonylamino-pentanoic Acid, (Z)-4-(5,6-dimethoxy-2-oxo-1,2-dihydro-indol-3-ylidenemethyl)phenyl Ester] gave an IC50 [1, 5] of 770 nM and an IC50 [2, 6] of 3.45 µM.

Compound `COc1cc2c(cc1OC)/C(=C/c1ccc(OC(=O)c3cccn3C)cc1)C(=O)N2` [G.3, 1-Methyl-1H-pyrrole-2-carboxylic Acid, (Z)-4-(5,6-dimethoxy-2-oxo-1,2-dihydro-indol-3-ylidenemethyl)phenyl Ester] has an IC50 [1, 5] of 2650 nM and an IC50 [2, 6] of 6.38 µM.
